Measurements reported in a melting point compilation (Tetko et al.).

| Compound | melting point [°C] |
| --- | --- |
| COC(=O)c1c(Cl)ncnc1Cl | 50 to 52 |
| COc1ccc(C2C(C(=O)O)CCC(=O)N2C)cc1 (configuration not stated) | 213 to 215 |
| COC(=O)c1cc(Br)cc(S(N)(=O)=O)c1 | 138 to 140 |
| O=C1CNc2ccc(S(=O)(=O)N3CCCCC3)cc2N1 | 144 to 146 |
| Sc1nnc(N2CCCCC2)s1 | 165 to 167 |
| COC(=O)c1nccc(Cl)c1F | 49 to 51 |
| CC(O)CNc1cc(Cl)ncn1 (configuration not stated) | 101 to 103 |
| O=C(c1[nH]nc2ccccc12)N1CCNCC1 | 179 to 181 |
| CCOC(=O)Cc1cc(=O)oc2ccc(O)cc12 | 173 to 175 |
| NNc1cc(C(F)(F)F)nc(-c2ccncc2)n1 | 233 to 235 |
| O=C(NC1CCCC1)c1ccc(Cl)nn1 | 139 to 141 |
| NS(=O)(=O)c1cnc2c(c1)CCC2 | 188 to 190 |
| O=C1C(Br)CCN1c1ccc(C(F)(F)F)cc1 (configuration not stated) | 63 to 65 |
| O=C(O)Cc1cc2ccccc2o1 | 89 to 91 |
| NS(=O)(=O)c1cc([N+](=O)[O-])ccc1Cl | 155 to 157 |
| NCc1ccc(N2CCOCC2)c(F)c1 | 36 to 38 |
| NC(=O)c1nn(CC(=O)O)c(=O)c2ccccc12 | 220 to 222 |
| Cc1sc(=O)[nH]c1-c1ccccc1 | 171 to 173 |
| Cc1ccc(-n2nc(C(=O)O)c3c2CCCC3)cc1F | 208 to 210 |
| Cc1cc(C)n2ncc(C(=O)NCC(=O)O)c2n1 | 244 to 246 |
| Nc1cccc(-c2nc3ccccc3s2)c1 | 138 to 140 |
| O=Cc1c(F)cccc1N1CCCC1 | 41 to 43 |
| COc1ccc(S(N)(=O)=O)c(OC)c1C(=O)O | 151 to 153 |
| Cc1ccc(C(C)(C)CC(=O)O)cc1 | 50 to 57 |

| Compound | melting point [°C] |
| --- | --- |
| CC(C)(C)C(N)c1nc(-c2nnc[nH]2)no1 (configuration not stated) | 169 to 171 |
| O=C(O)CCC(=O)N1CC(=O)Nc2ccccc21 | 181 to 183 |
| Nc1nnc(Cc2cccc(Cl)c2)s1 | 196 to 198 |
| Cc1nc(Cl)c(Cl)nc1C | 77 to 79 |
| COc1ccc(NS(=O)(=O)c2ccc(N)cc2)cc1OC | 171 to 173 |
| O=C(O)c1ccnc(C2CC2)c1 | 257 to 259 |
| Clc1ccnc2ccsc12 | 32 to 34 |
| O=C(O)C1CSCN1C(=O)C1CCCC1 (configuration not stated) | 114 to 116 |
| Cc1cc(F)ccc1-n1cc(O)c(C(=O)O)n1 | 149 to 151 |
| Cc1nonc1N | 56 to 58 |
| NC(=O)NCC(F)(F)F | 110 to 112 |
| Nc1ccc(NC(=O)c2ccco2)cc1C(F)(F)F | 120 to 122 |
| O=C(Cc1nc(CCl)cs1)Nc1ccccc1 | 115 to 117 |
| Oc1nnc(-c2ccccc2)c(-c2ccccc2)n1 | 222 to 224 |
| c1ccc(NCc2cccs2)nc1 | 76 to 78 |
| CSc1nc(C2CC2)cc(C(=O)O)c1C#N | 181 to 183 |
| CNCCCc1cc(-c2ccc(F)cc2)n[nH]1 | 104 to 106 |
| Cc1c(NS(=O)(=O)c2ccc(Cl)c([N+](=O)[O-])c2)c(=O)n(-c2ccccc2)n1C | 227 to 229 |
| Cc1[nH]c2ccc(Oc3ccccc3)cc2c(=O)c1C | 289 to 291 |
| COc1cc2ccncc2cc1O | 159 to 161 |
| Cc1cc(CCC(=O)O)c(C)s1 | 57 to 59 |
| Cc1c(C=O)c2ccccn2c1C=O | 214 to 216 |
| Cc1c(C(=O)O)nnn1-c1ccccc1 | 110 to 112 |
| CS(=O)(=O)c1ccc(Cl)c([N+](=O)[O-])c1 | 121 to 123 |

| Compound | melting point [°C] |
| --- | --- |
| O=C(O)c1ccn(-c2cccc(Cl)c2)n1 | 143 to 145 |
| C=CCc1cc(OCC)ccc1O | 135 to 137 |
| N#CCC(=O)N1CCS(=O)(=O)CC1 | 157 to 159 |
| Cc1cc(N)n(CCC#N)n1 | 104 to 106 |
| O=C1CCC(C(=O)O)CC1 | 62 to 64 |
| Cn1c(=O)oc2cc(C(=O)CCl)ccc21 | 159 to 161 |
| COC(OC)(OC)c1cc2ccccc2c(=O)[nH]1 | 131 to 133 |
| CC(Cl)C(=O)Nc1ccc(Cl)cc1C(F)(F)F (configuration not stated) | 107 to 109 |
| NS(=O)(=O)c1cc(C(=O)O)cc2c1CCCC2 | 275 to 277 |
| O=c1cnc2ccccc2[nH]1 | 271 to 272 |
| O=C(NCc1nnc2n1CCC2)OCC(F)(F)F | 131 to 133 |
| Fc1cccc(Cn2cc(Br)cn2)c1F | 53 to 55 |
| Nc1nc(-c2ccc(Cl)cc2)n[nH]1 | 219 to 221 |
| Cc1nn(-c2ccc(Br)cc2)cc1C(=O)O | 229 to 231 |
| O=S(=O)(c1ccc(N=C=S)cc1)N1CCOCC1 | 99 to 101 |
| Cc1cccc2[nH]c(C(=O)O)cc12 | 216 to 218 |
| NC(=S)c1cc2ccccc2o1 | 146 to 148 |
| C1CCC(NC2=NCCCS2)CC1 | 112 to 114 |
| Nc1ccc(Nc2ccc(F)cc2)c2ccncc12 | 153 to 155 |
| Cc1cc(Cl)nc(-c2ccccn2)n1 | 70 to 72 |
| Nc1ccc(S(N)(=O)=O)cc1F | 166 to 168 |
| CC(C)(C)OC(=O)NCCc1nnc2n1CCCC2 | 158 to 160 |
| CCc1c(O)nc(S)n(-c2ccccc2OC)c1=O | 160 to 162 |
| CC(C)c1ccccc1NC(N)=S | 137 to 139 |
